# In EP4813381A1, “PHARMACEUTICAL USE OF GUAIANE SESQUITERPENE DERIVATIVE” (Nanjing University Of Chinese Medicine, priority 2023, dated 2025):
# Assays:
# Rat mast cells (RBL-2H3) = test: Mast cell degranulation test (anti-DNP IgE / DNP-HSA); format: cell-based; conditions: RBL-2H3, IgE+HSA, 4 h
# Procedure: Rat mast cells (RBL-2H3) were cultured routinely in DMEM medium containing 10% FBS within a 5% CO2 incubator. Upon reaching 70-80% confluence, cells were uniformly seeded at a density of 1 × 10^5 cells/mL into 6-well plates (2 mL per well), divided into the following groups: Normal, IgE+HSA, Compound 1 (0.01, 0.1, 1, 10 µM). Mast cells were sensitized with 500 µg/L anti-DNP IgE for 12 h. washed with PBS, and cultured for an additional 12 h with 100 µg/L DNP-HSA. Compound 1 at the specified concentrations was then added. […]
# Hepa1-6 cells = test: Hepa1-6 mouse hepatocellular carcinoma subcutaneous xenograft model; format: in vivo, C57BL/6 mice; conditions: Hepa1-6, oral 40 µmol/kg/d, 2 weeks
# Procedure: Hepa1-6 cells were cultured and expanded in vitro. An appropriate amount of cells in the logarithmic growth phase was resuspended in a mixture of serum-free DMEM medium and Matrigel (1:1). under aseptic conditions to prepare a 2.5×10^6/100 µL cell suspension. A 100 µL aliquot of this suspension was injected subcutaneously into the left forearm axilla of male C57BL/6 mice. […] Daily oral administration was performed for 2 weeks. During the treatment period, mouse body weight and tumor diameter were measured daily. At the end of the experiment, mice were euthanized by cervical dislocation, and tumors were removed for weighing. Tumor volume (TV) was calculated using the formula: TV = 1/2 × a × b^2, where a represents the longest diameter of the tumor and b represents the shortest diameter.
compound,measurement,setting,value
C=C1C(=O)O[C@@H]2[C@@H]3[C@]4(CC[C@@]3(C)O)C[C@]4(C)CC[C@@H]12 [compound 1],β-Glucosaminidase,Rat mast cells (RBL-2H3); 0.01 µM,13.24 ± 0.08 ng/mL
same,β-Glucosaminidase,Rat mast cells (RBL-2H3); 0.1 µM,12.08 ± 0.12 ng/mL
same,β-Glucosaminidase,Rat mast cells (RBL-2H3); 1 µM,10.65 ± 0.05 ng/mL
same,β-Glucosaminidase,Rat mast cells (RBL-2H3); 10 µM,7.13 ± 0.07 ng/mL
CN(C)C[C@@H]1C(=O)O[C@H]2[C@H]1CC[C@@]1(C)C[C@]13CC[C@@](C)(O)[C@H]23 [compound 20],Tumor Inhibition Rate (%),Hepa1-6 cells,96.78%
same,Tumor weight,Hepa1-6 cells,0.03 ± 0.02 g
